From PubChem BioAssay AID613 (The Scripps Research Institute Molecular Screening Center, 2007)
Calls of active or inactive are those of the source.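 Rule for the calls: active = EC50 at or below 10 micromolar; inactive = EC50 above 10 micromolar.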

The compounds below were run against 5-hydroxytryptamine receptor 1A (Homo sapiens) (UniProt P08908) (assay: EC50 of serotonin HTR1A agonism – cell-based, CHO, Ga15 NFAT-bla reporter, dose response (AID 613)). Settings: CHO 5-HT1a Ga15 NFAT-bla reporter, agonist FRET.
Chain of 5-hydroxytryptamine receptor 1A (Homo sapiens) (P08908 whole entry, looked up): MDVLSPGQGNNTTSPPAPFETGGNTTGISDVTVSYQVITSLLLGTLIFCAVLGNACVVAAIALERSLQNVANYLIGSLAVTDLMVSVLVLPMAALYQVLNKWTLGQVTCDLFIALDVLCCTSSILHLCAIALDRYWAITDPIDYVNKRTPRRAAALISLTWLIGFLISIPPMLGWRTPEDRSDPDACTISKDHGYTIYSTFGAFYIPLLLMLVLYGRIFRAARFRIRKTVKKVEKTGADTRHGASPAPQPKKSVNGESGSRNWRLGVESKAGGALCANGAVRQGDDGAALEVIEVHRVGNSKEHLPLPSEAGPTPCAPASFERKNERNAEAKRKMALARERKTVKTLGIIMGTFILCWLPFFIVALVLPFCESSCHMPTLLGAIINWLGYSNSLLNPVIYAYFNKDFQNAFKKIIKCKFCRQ

EC50, inactive:
Cc1noc(NS(=O)(=O)c2ccc(N3CC(O)=C(c4ccccc4)C3=N)cc2)c1C > 99 µM
C=CCOc1cccc(C2C(C(=O)c3ccco3)=C(O)C(=O)N2CCN(CC)CC)c1 (stereo unspecified) > 99 µM
CC(C)N1CC=C2C(C#N)=C(N)C(C#N)(C#N)C(c3ccccc3)C2C1 (stereo unspecified)
COc1ccccc1N=c1oc2cc(O)ccc2cc1C(=O)NCC1CCCO1 (stereo unspecified)
COc1ccc(N=c2oc3cc(O)ccc3cc2C(=O)NCC2CCCO2)cc1 (stereo unspecified) > 99 µM
Cc1cccc(N=c2oc3cc(O)ccc3cc2C(N)=O)c1
NC(=O)c1cc2ccc(O)cc2oc1=NCc1ccccc1
CCCCCCc1cc2cc(C(=O)NC)c(=N)oc2cc1O
CN(C)CCCN1C(=O)C(=O)/C(=C(/O)c2ccc3c(c2)OCCO3)C1c1ccccn1 (stereo unspecified) > 99 µM
CCN(CC)c1ccc2cc(C(=O)Nc3ccccn3)c(=O)oc2c1 > 99 µM
COc1ccccc1N=c1oc2cc(O)ccc2cc1C(N)=O
COCCOC(=O)C1=C(C)Nc2nc(C)nn2C1c1ccc(F)cc1 (stereo unspecified) > 99 µM
CCSCCOC(=O)C1=C(C)NC(=O)NC1c1ccc2c(c1)OCO2 (stereo unspecified) > 99 µM
CCCCCCc1cc2cc(-c3nnc(-c4ccccc4O)o3)c(=O)oc2cc1O > 99 µM
CN(C)c1ccc(C2C=C(c3ccc(Cl)cc3OC(F)F)Nc3ncnn32)cc1 (stereo unspecified) > 99 µM
Cc1ccc(N2C(=O)CC(N3CCN(C4CCc5ccccc5C4)CC3)C2=O)cc1 (stereo unspecified) > 99 µM
Cc1ccc(N=c2oc3cc(O)ccc3cc2C(N)=O)cc1
CCCCOc1ccc(C2C3CN(C(=O)OCC)CC=C3C(C#N)=C(N)C2(C#N)C#N)cc1OC (stereo unspecified) > 99 µM
N#CC1=C(N)N(c2ccccc2)C(c2ccco2)C1(C#N)C#N (stereo unspecified) > 99 µM
CCOC(=O)c1sc2c(c1C)C(c1cccs1)C1=C(CCCC1=O)N2 (stereo unspecified) > 33 µM
COc1ccc(N=c2oc3cc(O)ccc3cc2C(=O)NCC2CCCO2)c(OC)c1 (stereo unspecified) > 99 µM
COc1ccc(OC)c(N=c2oc3cc(O)ccc3cc2C(N)=O)c1 > 99 µM
Nc1nonc1/C(=N/O)N1CCCC1 > 99 µM
NC(=O)c1cc2ccc(O)cc2oc1=Nc1ccccc1
Cc1ccc(C2C3CN(C(C)C)CC=C3C(C#N)=C(N)C2(C#N)C#N)cc1 (stereo unspecified)
N#C/C(=C(/O)COC(=O)Cc1c[nH]c2ccccc12)c1nc2ccccc2[nH]1 > 99 µM
